Measurements published in US20100029654A1, “CARDIOVASCULAR COMPOSITIONS AND USE OF THE SAME FOR THE TREATMENT OF ALZHEIMER'S DISEASE” (MOUNT SINAI SCHOOL OF MEDICINE, priority 2006, published 2010).
Where a name gives a salt, the structure may show the parent alone. Read-outs that look alike come from different tables or passages of the source.

Key:
Tg2576 mice [1] = assay: blood pressure (systolic, diastolic, MAP) by tail-cuff; assay type: in vivo, mouse; conditions: Tg2576, 3 weeks
Description: FIG. 1 Tg2576 mice are characterized by normal blood pressure under basal conditions. Baseline measurements of systolic, diastolic blood pressure, and mean arteriole blood pressure (MAP) in ˜11 month old female Tg2576 mice. Strain-, age-, gender-matched WT mice were measured using a commercial blood pressure analysis system designed specifically for small rodents (Hatteras Instruments, NC). Following manufacturer's instruction, mice were temporarily immobilized in a restraining chamber and an inflated tail-cuff wrapped around the tail was used to measure the systolic pressure, diastolic pressure, and MAP. Each blood pressure determination was calculated as the mean of 10 individual measurements per animal (n=6-10 group).
FIG. 6A-C show body weight of mice in response to ˜3 weeks of treatment. […] FIG. 6D-F show the assessment of systolic, diastolic, and MAP blood pressure in Tg2576 mice in response to drug doses below or within the range of those prescribed in hypertension. Blood pressure measurements were conducted using a commercial blood pressure analysis system designed specifically for small rodents (Hatteras Instruments, NC). Following manufacturer's instruction, mice were temporarily immobilized in a restraining chamber and an inflated tail-cuff wrapped around the tail was used to measure pressures. Each blood pressure determination was calculated as the mean of 10 individual measurements per animal. In A-F, values represent mean±SEM values, n=3-5 mice per group. 2-tailed t-test: *P<0.05.
Assessment of blood pressure and glucose utilization. Mouse blood pressure was routinely recorded using a commercial blood pressure analysis system designed specifically for small rodents (Hatteras Instruments, NC). […] Briefly, mice were given a single dose of glucose post-prandially (i.p. 2 g/kg body weight). Blood was collected from the tail-vein periodically over a 2-hour period. Blood glycemic content was assessed using the OneTouch LifeScan System, (LifeScan, Milpitas, Calif.) following the manufacturer's instruction.

Tg2576 mice [2] = assay: tolerability: body weight, fluid consumption, glucose tolerance; conditions: Tg2576, short-term dosing
[3] = test system: primary cortico-hippocampal neuron cultures; assay: lactate dehydrogenase (LDH) activity assay in parallel neuron cultures; conditions: for LDH (at 5F-5 M): Table IV; for LDH at E-5M % of change: drug at E-5M
Description: (§1) For in vitro treatments drugs available from “The Spectrum Collection” in stocks of 10 mM in DMSO were applied directly to cultures to the desired concentrations (final 1% DMSO); control primary neuron cultures from Tg2576 embryos were treated with vehicle resulting in a final 1% DMSO.
(§2) Cell viability was assessed using a commercial available LDH assay kit according to the manufacture's instruction (Promega).

[4] = test system: primary cortico-hippocampal neuron cultures; assay: MTT in primary screening
Aβ1-42 [5] = assay: Aβ1-42 content in conditioned medium of primary cortico-hippocampal neuron cultures from Tg2576 mice (ELISA; primary and secondary dose-response screening); assay type: cell-based, mouse; conditions: Mus musculus; for EC50: Neuron; for activity at 100 µM: primary screening, drug 100 μM, Tg2576 neuron cultures, table sorted by Aβ1-42, read-out: Ab1-42 (% of ctl)
Aβ1-42 [6] = assay: as above; assay type: cell-based, mouse; conditions: for activity at 100 µM: Mus musculus, Neuron, 24 h, read-out: Ab1-42 (% of ctl); for activity at 100 µM / Ab1-42 (% of ctl): drug 100 μM; for reducing Aβ1-42: <85% of ctl
How it was run: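 Primary cortico-hippocampal neurons from embryonic Tg2576 mouse brain were seeded on poly-D-lysine-coated 96-well plates at 1.0×10^5 cells per well in serum-free Neurobasal medium with 2% B27, 0.5 mM L-glutamine and 1% penicillin-streptomycin. For primary screening, duplicate wells received 100 μM drug (1% DMSO final). Vehicle-treated cultures served as controls, and Aβ1-42 in conditioned medium was measured by commercial ELISA.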

Aβ1-40 = Aβ1-40 content in conditioned medium of primary cortico-hippocampal neuron cultures from Tg2576 mice (ELISA; primary and secondary dose-response screening); assay type: cell-based, mouse; conditions: for activity at 100 µM / EC50: Mus musculus; for activity at 100 µM: 24 h, read-out: Ab1-40 (% of ctl); for activity at 100 µM / Ab1-40 (% of ctl): drug 100 μM; for reduced Aβ1-40: <85% of ctl
How it was run: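 Primary cortico-hippocampal neurons from embryonic Tg2576 mice were plated at 1.0×10^5 cells per well on poly-D-lysine-coated 96-well plates in Neurobasal with 2% B27, 0.5 mM L-glutamine and 1% penicillin-streptomycin. Cultures received drug in 1% DMSO, and Aβ1-40 in the conditioned medium was measured by BioSource ELISA 24 hours after treatment, relative to vehicle controls.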

[7] = test system: primary cortico-hippocampal neuron cultures
Description: as §1, §2

[8] = Primary Screening, table sorted by Aβ1-40
[9] = primary screening, table sorted by Aβ1-42
[10] = Table IV, dose-response 0.01-100 μM, read-out: EC50 (M): Ab-lowering activity
[11] = primary screening, Tg2576 neuron cultures, table sorted by Aβ1-42
[12] = Neuron, Primary Screening, table sorted by Aβ1-40
[13] = Neuron, primary screening, Tg2576 neuron cultures, table sorted by Aβ1-42
[14] = Neuron, Table IV, dose-response 0.01-100 μM, read-out: EC50 (M): Ab-lowering activity Abeta1-40
[15] = 24 h, conditioned medium of primary cortico-hippocampal neuron cultures from Tg2576 embryos, 24 hours after treatment, relative to vehicle (1% DMSO) control, read-out: EC50 (molar) Aβ1-42
[16] = 24 h, secondary dose-response screening 0.01-100 μM, 24 hours, read-out: EC50 (molar) Aβ1-42
[17] = Neuron, secondary dose-response screening 0.01-100 μM, 24 hours, read-out: EC50 (molar) Aβ1-40
[18] = secondary dose-response screening 0.01-100 μM, 24 hours

SMILES	LDH (% of ctl) [3, 8]	LDH (% of ctl) [3, 9]	MTT (% of ctl) [4, 8]	MTT (% of ctl) [4, 9]	EC50 (Aβ1-42 [5]; [16]) [M]	LDH at E-5M % of change [3] [%]	activity at 100 µM (Aβ1-42 [6]; [8]) [%]	activity at 100 µM (Aβ1-42 [6]; [11]) [%]	activity at 100 µM (Aβ1-40; [12]) [%]	activity at 100 µM (Aβ1-40; [13]) [%]	reduced Aβ1-40 (Aβ1-40; primary screening)	Ab1-42 (% of ctl) (Aβ1-42 [6]; [8])	reducing Aβ1-42 (Aβ1-42 [6]; primary screening)	Ab1-40 (% of ctl) (Aβ1-40; [8])	further results
CC(C)NCC(O)COc1cccc2ccccc12.Cl (stereo not drawn) [Propranolol Hydrochloride (−)]											reduced Aβ1-40	32.8 % of ctl	useful in reducing Aβ1-42	55.0 % of ctl	LDH (% of ctl) [7]: 166.6 % of ctl; Ab1-42 (% of ctl) (Aβ1-42 [6]; [11]): 32.8 % of ctl; Ab1-40 (% of ctl) (Aβ1-40; [11]): 55.0 % of ctl
N=C(N)NCCN1CCCCCCC1 [Guanethidine Sulfate]															LDH (% of ctl) ([7]; Tg2576, mouse): 1057.3 % of ctl
C[C@]12CC[C@H]3[C@@H](CC[C@]4(O)C[C@@H](O)CC[C@]34C=O)[C@@]1(O)CC[C@@H]2C1=CC(=O)OC1 [Strophanthidin]	119.4 % of ctl	119.4 % of ctl	99.2 % of ctl	99.2 % of ctl								88.6 % of ctl		107.5 % of ctl	activity at 100 µM (Aβ1-42 [5]; 24 h): 88.6%; activity at 100 µM (Aβ1-40; [11]): 108%
COc1ccccc1OCCNCC(O)COc1cccc2[nH]c3ccccc3c12 (stereo not shown) [Carvedilol]	148.6 % of ctl	148.6 % of ctl	66.7 % of ctl	66.7 % of ctl	0.000132		30.8	30.8	38.3	38.3	reduced Aβ1-40		useful in reducing Aβ1-42		LDH (at 5F-5 M) [3]: no change; EC50 (Aβ1-42 [5]; [15]): 0.000132 M; EC50 (Aβ1-42 [5]; [10]): 0.000132 M; EC50 (Aβ1-40; [14]): 6.61e-05 M; EC50 (Aβ1-40; [17]): 6.61e-05 M
CC[C@H]1[C@@H]2C[C@H]3[C@@H]4N(C)c5ccccc5[C@]45C[C@@H]([C@H]2[C@H]5O)N3[C@@H]1O [Ajmaline]			90.3 % of ctl	90.3 % of ctl								103.3 % of ctl		114.0 % of ctl	LDH (% of ctl) ([7]; Tg2576, mouse): 97.6 % of ctl; activity at 100 µM (Aβ1-42 [5]; 24 h): 103%; activity at 100 µM (Aβ1-40; [11]): 114%
COC(=O)C1=C(C)NC(C)=C(C(=O)OC)C1c1ccccc1[N+](=O)[O-] [Nifedipine]	76.1 % of ctl	76.1 % of ctl	98.7 % of ctl	98.7 % of ctl	7.36e-08	12.0	90.6	90.6	73.4	73.4					EC50 (Aβ1-42 [5]; [15]): 7.36e-08 M
C[C@H]1O[C@@H](O[C@H]2[C@@H](O)C[C@H](O[C@H]3[C@@H](O)C[C@H](O[C@H]4CC[C@@]5(C)[C@H](CC[C@@H]6[C@@H]5CC[C@]5(C)[C@@H](C7=CC(=O)OC7)CC[C@]65O)C4)O[C@@H]3C)O[C@@H]2C)C[C@H](O)[C@@H]1O [Digitoxin]	106.4 % of ctl	106.4 % of ctl	86.0 % of ctl	86.0 % of ctl							reduced Aβ1-40	92.9 % of ctl		68.3 % of ctl	activity at 100 µM (Aβ1-42 [5]; 24 h): 92.9%; activity at 100 µM (Aβ1-40; [11]): 68.3%

Second part, led by results:

LDH (% of ctl) [3, 8]	LDH (% of ctl) [3, 9]	MTT (% of ctl) [4, 8]	MTT (% of ctl) [4, 9]	EC50 (Aβ1-42 [5]; [16]) [M]	LDH at E-5M % of change [3] [%]	SMILES	activity at 100 µM (Aβ1-42 [6]; [8]) [%]	activity at 100 µM (Aβ1-42 [6]; [11]) [%]	activity at 100 µM (Aβ1-40; [12]) [%]	activity at 100 µM (Aβ1-40; [13]) [%]	reduced Aβ1-40 (Aβ1-40; primary screening)	Ab1-42 (% of ctl) (Aβ1-42 [6]; [8])	reducing Aβ1-42 (Aβ1-42 [6]; primary screening)	Ab1-40 (% of ctl) (Aβ1-40; [8])	further results
110.4 % of ctl	110.4 % of ctl	71.3 % of ctl	71.3 % of ctl			CCCCc1nc(Cl)c(CO)n1Cc1ccc(-c2ccccc2-c2nn[nH]n2)cc1 [Losartan]	97.1	97.1	76	76	reduced Aβ1-40				systolic, diastolic, MAP blood pressure (Tg2576 mice [1]; doses within the range used for hypertension): decreased systolic, diastolic, and MAP blood pressure; systolic, diastolic, MAP blood pressure (Tg2576 mice [1]; doses ~3 fold below the minimal hypertension dose): did not significantly influence either systolic, diastolic or MAP blood pressure; fluid intake (Tg2576 mice [2]): did not significantly influence the amount of fluid intake; LDH (at 5F-5 M) [3]: no change; EC50 (Aβ1-42 [5]; [10]): 0.0001 M; EC50 (Aβ1-40; [14]): 0.000117 M
72.5 % of ctl	72.5 % of ctl	95.3 % of ctl	95.3 % of ctl	4.05e-09	−5.6	CCC[C@H](N[C@@H](C)C(=O)N1[C@H](C(=O)O)C[C@@H]2CCCC[C@@H]21)C(=O)OCC [Perindopril Erbumine]	88.8	88.8	83.8	83.8	reduced Aβ1-40				EC50 (Aβ1-42 [5]; [15]): 4.5e-09 M; EC50 (molar) Aβ1-40 (Aβ1-40; conditioned medium of primary cortico-hippocampal neuron cultures from Tg2576 embryos, 24 hours after treatment, relative to vehicle (1% DMSO) control): no fit; EC50 (molar) Aβ1-40 (Aβ1-40; [18]): no fit
107.8 % of ctl	107.8 % of ctl	82.7 % of ctl	82.7 % of ctl	7.08e-12	6.0	COC(=O)[C@@H]1[C@H]2C[C@H]3c4[nH]c5ccccc5c4CCN3C[C@@H]2CC[C@@H]1O [Yohimbine Hydrochloride]	68.9	68.9	66.2	66.2	reduced Aβ1-40		useful in reducing Aβ1-42		EC50 (molar) Aβ1-40 (Aβ1-40; [18]): no fit
396.1 % of ctl	396.1 % of ctl	77.7 % of ctl	77.7 % of ctl	2.13e-05	−3.4	CCCCCCCCNC(C)C(O)c1ccc(SC(C)C)cc1 (stereo not shown) [Suloctidil]	4.6	4.6	1.8	1.8	reduced Aβ1-40		useful in reducing Aβ1-42		EC50 (Aβ1-40; [17]): 1.45e-05 M
107.5 % of ctl	107.5 % of ctl	102.7 % of ctl	102.7 % of ctl	1.24e-06	6.4	OCCN(CCO)c1nc(N2CCCCC2)c2nc(N(CCO)CCO)nc(N3CCCCC3)c2n1 [Dipyridamole]	62.6	62.6	72.2	72.2	reduced Aβ1-40		useful in reducing Aβ1-42		EC50 (Aβ1-40; [17]): 1.66e-05 M
